Source: patent publication US20110152094A1, “Herbicidal compositions comprising flufenacet” (Bayer CropScience AG, priority 2009, published 2011)

How the values were obtained:
Assay type in all cases: in vivo
[1] = test system: ALOMY resistant (Alopecurus myosuroides); assay: Greenhouse trial, PE application on resistant biotypes (test method 8); conditions: resistant biotype, g of AS/ha: (A) 90, (B) 1200, (A)+(B) 90 + 1200
Method: (§1) In the standard design of the test, seeds of various broad-leaved weed and weed grass biotypes (origins) were sown in a 8-13 cm diameter pot filled with natural soil of a standard field soil (loamy silt; non-sterile) and covered with a covering soil layer of about 1 cm. The pots were then cultivated in a greenhouse (12-16 h of light, temperature day 20-22° C., night 15-18° C.) until the time of application. The pots were treated on a laboratory track sprayer with spray liquors comprising the compositions according to the invention, mixtures of the prior art or components used individually. Application of the active compounds or active compound combinations formulated as WG, WP, EC or otherwise was carried out at the appropriate growth stages of the plants. The application rate for the spray application was 100-600 l of water/ha. After the treatment, the plants were returned to the greenhouses.
(§2) About 3 weeks after the application, the soil action or/and foliar action was assessed visually according to a scale of 0-100% in comparison to an untreated comparative group: 0%=no noticeable effect compared to the untreated comparative group; 100%=full effect compared to the untreated comparative group.
(§3) (notes: the term “seeds” also includes vegetative propagation forms such as, for example, rhizome pieces; abbreviations used: h light=hours of illumination, g of AS/ha=gram of active substance per hectare, l/ha=liter per hectare, S=sensitive, R=resistant) • 1. Pre-emergence action against weeds: seeds of various broad-leaved weed and weed grass biotypes (origins) were sown in a 8-13 cm diameter pot filled with natural soil of a standard field soil (loamy silt; non-sterile) and covered with a covering soil layer of about 1 cm. The pots were then cultivated in a greenhouse (12-16 h of light, temperature day 20-22° C., night 15-18° C.) until the time of application. The pots were treated at the BBCH stage 00-10 of the seeds/plants on a laboratory track sprayer with spray liquors comprising the compositions according to the invention, mixtures or components used individually, as WG, WP, EC or other formulations. The application rate for the spray application was 100-600 l of water/ha. After the treatment, the plants were returned to the greenhouses and, when required, treated with fertilizer and watered. • 2. Post-emergence action against weeds: seeds of various broad-leaved weed and weed grass biotypes (origins) were sown in a 8-13 cm diameter pot filled with natural soil of a standard field soil (loamy silt; non-sterile) and covered with a covering soil layer of about 1 cm. The pots were then cultivated in a greenhouse (12-16 h of light, temperature day 20-22° C., night 15-18° C.) until the time of application. The pots were treated at various BBCH stages between 11-25 of the seeds/plants, i.e. generally between two to three weeks after the start of the cultivation, on a laboratory track sprayer with spray liquors comprising the compositions according to the invention, mixtures or components used individually, as WG, WP, EC or other formulations. The application rate for the spray application was 100-600 l of water/ha. After the treatment, the plants were returned to the greenhouses and, when required, treated with fertilizer and watered. • 3. Selective pre-emergence action: seeds of various crop species (origins) were sown in a 8-13 cm diameter pot filled with natural soil of a standard field soil (loamy silt; non-sterile) and covered with a covering soil layer of about 1 cm. The pots were then cultivated in a greenhouse (12-16 h of light, temperature day 20-22° C., night 15-18° C.) until the time of application. The pots were treated at the BBCH stage 00-10 of the seeds/plants on a laboratory track sprayer with spray liquors comprising the compositions according to the invention, mixtures or components used individually, as WG, WP, EC or other formulations. The application rate for the spray application was 100-600 l of water/ha. […]

[2] = test system: MATCH resistant (Matricaria chamomilla); assay: as above; conditions: resistant biotype, g of AS/ha: (A) 90, (B) 1200, (A)+(B) 90 + 1200, (C) 10
Method: as §1, §2, §3

[3] = test system: MATCH sensitive (Matricaria chamomilla); assay: as above; conditions: sensitive biotype, g of AS/ha: (A) 90, (B) 1200, (A)+(B) 90 + 1200, (C) 10
Method: as §1, §2, §3

[4] = test system: ALOMY sensitive (Alopecurus myosuroides); assay: as above; conditions: sensitive biotype, g of AS/ha: (A) 90, (B) 1200, (A)+(B) 90 + 1200
Method: as §1, §2, §3

AVEFA = Avena fatua = assay: Greenhouse trial, pre-emergence (PE) action against weeds (test method 1); conditions: PE application; g of AS/ha: (A) 90, (B) 1200, (A)+(B) 90 + 1200
Method: as §1, §2
(§4) (notes: the term “seeds” also includes vegetative propagation forms such as, for example, rhizome pieces; abbreviations used: h light=hours of illumination, g of AS/ha=gram of active substance per hectare, l/ha=liter per hectare, S=sensitive, R=resistant) • 1. Pre-emergence action against weeds: seeds of various broad-leaved weed and weed grass biotypes (origins) were sown in a 8-13 cm diameter pot filled with natural soil of a standard field soil (loamy silt; non-sterile) and covered with a covering soil layer of about 1 cm. The pots were then cultivated in a greenhouse (12-16 h of light, temperature day 20-22° C., night 15-18° C.) until the time of application. The pots were treated at the BBCH stage 00-10 of the seeds/plants on a laboratory track sprayer with spray liquors comprising the compositions according to the invention, mixtures or components used individually, as WG, WP, EC or other formulations. The application rate for the spray application was 100-600 l of water/ha. After the treatment, the plants were returned to the greenhouses and, when required, treated with fertilizer and watered. • 2. Post-emergence action against weeds: seeds of various broad-leaved weed and weed grass biotypes (origins) were sown in a 8-13 cm diameter pot filled with natural soil of a standard field soil (loamy silt; non-sterile) and covered with a covering soil layer of about 1 cm. The pots were then cultivated in a greenhouse (12-16 h of light, temperature day 20-22° C., night 15-18° C.) until the time of application. […]

[5] = test system: MATCH = Matricaria chamomilla; assay: as above; conditions: PE application; g of AS/ha: (A) 90, (B) 1200, (A)+(B) 90 + 1200
Method: as §1, §2, §4

[6] = test system: TRZAW = Triticum aestivum, winter wheat; assay: Greenhouse trial, PE application at different sowing depths (test method 9); conditions: g of AS/ha: (A) 120, (B) 1200, (A)+(B) 120 + 1200
Method: as §1, §2, §3

STEME = Stellaria media [7] = assay: as above; conditions: g of AS/ha: (A) 120, (B) 1200, (A)+(B) 120 + 1200
Method: as §1, §2, §3

[8] = test system: HORVW = Hordeum vulgare, winter barley; assay: as above; conditions: g of AS/ha: (A) 120, (B) 1200, (A)+(B) 120 + 1200
Method: as §1, §2, §3

LOLPE = Lolium perenne [9] = assay: as above; conditions: g of AS/ha: (A) 120, (B) 1200, (A)+(B) 120 + 1200
Method: as §1, §2, §3

VIOAR = Viola arvensis = assay: Greenhouse trial, post-emergence (PO) action against weeds (test method 2); conditions: PO application; g of AS/ha: (A) 120, (B) 1200, (A)+(B) 120 + 1200; about 3 weeks after application
Method: as §1, §2, §3

STEME = Stellaria media [10] = assay: as above; conditions: PO application; g of AS/ha: (A) 120, (B) 1200, (A)+(B) 120 + 1200; about 3 weeks after application
Method: as §1, §2, §3

LOLPE = Lolium perenne [11] = assay: as above; conditions: PO application; g of AS/ha: (A) 120, (B) 1200, (A)+(B) 120 + 1200; about 3 weeks after application
Method: as §1, §2, §3

## CCC(CC)Nc1c([N+](=O)[O-])cc(C)c(C)c1[N+](=O)[O-] [(B) pendimethalin, N-(1-ethylpropyl)-3,4-dimethyl-2,6-dinitrobenzenamine]
[1]
  activity ALOMY resistant (visual assessment, scale 0-100% vs untreated): 40%
[2]
  activity MATCH resistant (visual assessment, scale 0-100% vs untreated): 10%
[3]
  activity MATCH sensitive (visual assessment, scale 0-100% vs untreated): 10%
[4]
  activity ALOMY sensitive (visual assessment, scale 0-100% vs untreated): 30%
AVEFA = Avena fatua
  activity AVEFA (visual assessment, scale 0-100% vs untreated): 88%
[5]
  activity MATCH (visual assessment, scale 0-100% vs untreated): 18%
[6]; sowing depth 5 mm
  activity on crop plant TRZAW, sowing depth 5 mm (visual assessment, scale 0-100% vs untreated): 45%
[6]; sowing depth 20 mm
  activity on crop plant TRZAW, sowing depth 20 mm (visual assessment, scale 0-100% vs untreated): 10%
STEME = Stellaria media [7]; sowing depth 5 mm
  activity STEME, sowing depth 5 mm (visual assessment, scale 0-100% vs untreated): 50%
STEME = Stellaria media [7]; sowing depth 20 mm
  activity STEME, sowing depth 20 mm (visual assessment, scale 0-100% vs untreated): 70%
[8]; sowing depth 5 mm
  activity on crop plant HORVW, sowing depth 5 mm (visual assessment, scale 0-100% vs untreated): 25%
[8]; sowing depth 20 mm
  activity on crop plant HORVW, sowing depth 20 mm (visual assessment, scale 0-100% vs untreated): 0%
LOLPE = Lolium perenne [9]; sowing depth 5 mm
  activity LOLPE, sowing depth 5 mm (visual assessment, scale 0-100% vs untreated): 30%
LOLPE = Lolium perenne [9]; sowing depth 20 mm
  activity LOLPE, sowing depth 20 mm (visual assessment, scale 0-100% vs untreated): 10%
VIOAR = Viola arvensis
  activity VIOAR (visual assessment, scale 0-100% vs untreated): 30%
STEME = Stellaria media [10]
  activity STEME (visual assessment, scale 0-100% vs untreated): 30%
LOLPE = Lolium perenne [11]
  activity LOLPE (visual assessment, scale 0-100% vs untreated): 0%
